Legend:
[1] = tested on: human monocyte-derived macrophages (hMDMs); experiment: Seahorse extracellular flux analysis (OCR, ECAR) in hMDMs; format: cell-based; settings: LPS 100 ng ml^−1 + ERG240 20 mM, 3 h
Procedure: Figure 2 BCAT1 inhibition reduces oxygen consumption and glycolysis in human macrophages. (a) Real-time extracellular OCR measurements in hMDMs (left panel) that were previously treated with either LPS (100 ng ml^−1) or LPS+ERG240 (20 mM) for 3 h. OCR values were recorded following sequential treatments with glucose (5 mM), oligomycin A (0.5 μM), carbonyl cyanide 4-(trifluoromethoxy) phenyl- hydrazine (FCCP, 1 μM) and a combination of 2-deoxy-D-glucose (2-DG, 50 mM), antimycin A (1 μM) and rotenone (1 μM). Basal respiration, estimated ATP production, and maximal respiration are shown in the right panel. n=3 healthy donor hMDMs were used in 12 technical replicates. The results are representative of three independent experiments. (b) Real-time ECAR (left panel), glycolysis and glycolytic capacity (right panel). n=3 healthy donor hMDMs were used in 12 technical replicates. The results are representative of three independent experiments. (c) hMDMs were subjected to BCAT1 siRNA (si-BCAT1) or non-targeting siRNA (Si-Control) treatment, followed by LPS stimulation (3 h, 100 ng ml^−1) before measuring BCAT1 expression levels (left panel), OCR (middle panel) and ECAR (right panel). (d) Basal respiration, estimated ATP production, maximal respiration, glycolysis and glycolytic capacity in si-Control and si-BCAT1 transfected, LPS-treated hMDMs. n=4 hMDMs were used in at least five technical replicates. Error bars are s.e.m. Significance was tested using two-tailed Student’s t-test.
Real-time measurements of OCR and ECAR were performed using a Seahorse XF96 Extracellular Flux Analyzer (Seahorse Bioscience). hMDMs cultured for 5 days in presence of RPMI containing M-CSF (100 ng ml^−1) and FCS (10%) were washed and incubated with either ERG240 or LPS or a combination of both for 3 h. Cells were then washed, re-suspended using the non-enzymatic cell dissociation buffer (Sigma) and 5 × 10^5 hMDMs were seeded as a monolayer in a 96-well microplate containing XF Assay Modified DMEM. Glucose and different metabolic drugs were injected during real-time measurements of OCR and ECAR. Basal respiration was calculated as the last measurement before addition of oligomycin – non mitochondrial respiration (minimum rate measurement after Rot/AntA). Estimated ATP production designates the last measurement before addition of oligomycin – minimum rate after oligomycin. Maximal respiration is shown as the maximum rate measurement after addition of FCCP – non mitochondrial respiration (minimum rate measurement after Rot/AntA). Glycolysis refers to ECAR values before the addition of oligomycin – ECAR values before the addition of glucose. […] In RNAi experiments, hMDMs transfected with either BCAT1 siRNA or control (non-targeting) siRNA were seeded in a 96-well microplate, LPS-stimulated (100 ng ml^−1, 3 h) and real-time measurements of OCR and ECAR were recorded, as described above.

[2] = tested on: human monocyte-derived macrophages (hMDMs); experiment: hMDM cell viability (alamarBlue); format: cell-based; settings: ERG240 20 mM
Procedure: Migration of BMDMs an d viability of hMDMs
The migration of BMDMs was assessed using a modified Bo yden chamber methodology.
Specificall y, mouse BMDMs were tr ypsinized and suspended in serum free incomplete medi a containing various concentrations of the drug at a cell density of 2.5x10^4 cells/mL. Volumes of 400 µL of cell suspens ions were added onto the upper chamber of 6.5 m m transwell inserts (Costar, Cat. No. 3422), placed in a 24-well plate (Costar). A volume of 1.5 mL of complete media containing 10% FBS as chemo- attractant were added into the lower chambers of the plate. The assa y also included wells with lower chambers containing serum free incomplete media as negative control. […]
To determine the effect of ERG240 on the total number of BMDMs, cell s were plated onto a 96-well plate at a density of 5,000 cells per well in complete media and allowed to adhere overnight. The cells were then exposed to various drug concentrations overnight and the cell population was quantified with CyQuant Cell Proliferation kit (Life Technologies) using triplicates, in two independent experiments. For hMDMs, cell viability was determined using the alamarBlue® Assa y (Invitrogen). […]
backed up by quantitative proteomics by LC -MS/MS (with maximum of the 12 most abundant multiply -charged ions registered in each survey spectrum selected in a data - […]

For `CC(=O)C(C)CCC(=O)O` (stereo not drawn) [ERG240], the basal respiration [1] was “significantly reduced”, the “estimated ATP production” value [1] was “significantly reduced” and the “extracellular acidification rate (ECAR)” value [1] was “decreased”. For the same compound, the glycolysis [1] was “significantly reduced”, the glycolytic capacity [1] was “significantly reduced” and the maximal respiration [1] was “significantly reduced”. The “oxygen consumption rate (OCR)” value [1] was “decreased”, the “cell viability at 3 and 8 h” value ([2]; control and LPS-treated hMDMs) was “did not affect cell viability” and the “cell viability at 24 h” value ([2]; only in LPS-stimulated cells) was “modest but significant reduction in cell viability”.
